# Experimental data as given in paper PMC5584945, “Evaluation of robenidine analog NCL195 as a novel broad-spectrum antibacterial agent” (PLoS ONE, 2017).
# Columns and labels:
# S. pneumoniae = assay: MIC, broth micro-dilution (CLSI); format: cell-based, Streptococcus pneumoniae; conditions: for MIC range / MIC50 / MIC90: S1 Table isolates; for MIC / MIC50 / MIC90: Streptococcus pneumoniae
# [1] = tested on: panel of mammalian cell lines (Caco-2, HEL 299, Hep G2, MDBK, MCF7); assay: In vitro cytotoxicity, WST-1, all cell lines tested; format: cell-based; conditions: lower bound over all the cell lines tested
# From the text: (§1) In order to ensure minimal off target mammalian cell cytotoxicity, we assayed NCL812, NCL195 and NCL219 for in vitro cytotoxicity using a panel of adherent mammalian cell lines: Caco-2 (human colorectal adenocarcinoma cell line), HEL 299 (non-cancerous human lung fibroblast cell line), Hep G2 (human hepatocellular carcinoma cell line), MDBK (normal bovine kidney cell line) and MCF7 (human mammary gland adenocarcinoma cell line). Cell lines were maintained in Dulbecco’s Modified Eagle’s Medium (DMEM; […] After 24 h incubation, media was removed, washed once with medium without antibiotics and fresh medium supplemented with 10% (vol/vol) FBS was added. […] Following exposure for 24 h, WST-1 reagent was added to each well at a final concentration of 10%. […] The IC50 value for each compound against each cell line was determined via non-linear regression (three parameters) using GraphPad Prism v6 software. The robustness of assays was confirmed with selected cell lines (Hep G2 and MDBK) seeded onto a 96–well Microwell Nunclon Delta Surface plate (Thermo Scientific Nunc; Cat No: 136101) at 5 × 10^4 cells per well.
# MDBK = assay: In vitro cytotoxicity, WST-1; format: cell-based, bovine; conditions: Bos taurus, 24 h exposure, read-out: IC50 values ± SEM
# From the text: as §1
# [2] = LogD by gradient HPLC chromatographic method; format: physicochemical; conditions: pH 7.4
structure (smiles),measurement,setting,value
"Cc1ccc(/C=N/Nc2cc(N/N=C/c3ccc(C)cc3)nc(N)n2)cc1 [NCL195, 4,6-bis(2-((E)-4-methylbenzylidene)hydrazinyl)pyrimidin-2-amine]",MIC range,S. pneumoniae; 5% FBS + 3% washed RBC,2 to 8 µg/mL
same,MIC range,S. pneumoniae; 10% FBS + 3% washed RBC,2 to 8 µg/mL
same,Change of MIC in the presence of serum,"S. pneumoniae; S. pneumoniae D39, human, horse or mouse serum",remained the same
same,MIC,"S. pneumoniae; A66.1 (serotype 3), 5% FBS",8 µg/mL
same,MIC,"S. pneumoniae; A66.1 (serotype 3), 10% FBS",8 µg/mL
same,MIC,"S. pneumoniae; ATCC6303, ATCC 6303 (serotype 3), 5% FBS + 3% washed RBC",4 µg/mL
same,MIC,"S. pneumoniae; ATCC6303, ATCC 6303 (serotype 3), 10% FBS + 3% washed RBC",4 µg/mL
same,MIC,"S. pneumoniae; D39/D39LUX (serotype 2), 5% FBS",8 µg/mL
same,MIC,"S. pneumoniae; D39/D39LUX (serotype 2), 10% FBS",8 µg/mL
same,MIC,"S. pneumoniae; EF3030 (serotype 19F), 5% FBS",8 µg/mL
same,MIC,"S. pneumoniae; EF3030 (serotype 19F), 10% FBS",8 µg/mL
same,MIC,"S. pneumoniae; L82016 (serotype 6B), 5% FBS",4 µg/mL
same,MIC,"S. pneumoniae; L82016 (serotype 6B), 10% FBS",8 µg/mL
same,MIC,"S. pneumoniae; P9 (serotype 6A), 5% FBS",8 µg/mL
same,MIC,"S. pneumoniae; P9 (serotype 6A), 10% FBS",8 µg/mL
same,MIC,"S. pneumoniae; P21 (serotype 3), 5% FBS",8 µg/mL
same,MIC,"S. pneumoniae; P21 (serotype 3), 10% FBS",8 µg/mL
same,MIC50,S. pneumoniae; 5% FBS,4 µg/mL
same,MIC90,S. pneumoniae; 5% FBS,8 µg/mL
same,MIC50,S. pneumoniae; 10% FBS,8 µg/mL
same,MIC90,S. pneumoniae; 10% FBS,8 µg/mL
same,MIC,"S. pneumoniae; TIGR4 (serotype 4), 5% FBS",4 µg/mL
same,MIC,"S. pneumoniae; TIGR4 (serotype 4), 10% FBS",4 µg/mL
same,MIC,"S. pneumoniae; WCH16 (serotype 6A), 5% FBS",8 µg/mL
same,MIC,"S. pneumoniae; WCH16 (serotype 6A), 10% FBS",8 µg/mL
same,MIC,"S. pneumoniae; WCH43 (serotype 4), 5% FBS",4 µg/mL
same,MIC,"S. pneumoniae; WCH43 (serotype 4), 10% FBS",4 µg/mL
same,MIC,"S. pneumoniae; WCH46 (serotype 4), 5% FBS",4 µg/mL
same,MIC,"S. pneumoniae; WCH46 (serotype 4), 10% FBS",4 µg/mL
same,MIC,"S. pneumoniae; WCH57 (serotype 8), 5% FBS",4 µg/mL
same,MIC,"S. pneumoniae; WCH57 (serotype 8), 10% FBS",4 µg/mL
same,MIC,"S. pneumoniae; WCH77 (serotype 5), 5% FBS",2 µg/mL
same,MIC,"S. pneumoniae; WCH77 (serotype 5), 10% FBS",2 µg/mL
same,MIC,"S. pneumoniae; WCH86 (serotype 4), 5% FBS",4 µg/mL
same,MIC,"S. pneumoniae; WCH86 (serotype 4), 10% FBS",4 µg/mL
same,MIC,"S. pneumoniae; WCH89 (serotype 7), 5% FBS",8 µg/mL
same,MIC,"S. pneumoniae; WCH89 (serotype 7), 10% FBS",8 µg/mL
same,MIC,"S. pneumoniae; WCH92 (serotype 4), 5% FBS",4 µg/mL
same,MIC,"S. pneumoniae; WCH92 (serotype 4), 10% FBS",4 µg/mL
same,MIC,"S. pneumoniae; WCH137 (serotype 6A), 5% FBS",8 µg/mL
same,MIC,"S. pneumoniae; WCH137 (serotype 6A), 10% FBS",8 µg/mL
same,MIC,"S. pneumoniae; WCH158 (serotype 19F), 5% FBS",4 µg/mL
same,MIC,"S. pneumoniae; WCH158 (serotype 19F), 10% FBS",4 µg/mL
same,MIC,"S. pneumoniae; WCH184 (serotype 19F), 5% FBS",8 µg/mL
same,MIC,"S. pneumoniae; WCH184 (serotype 19F), 10% FBS",8 µg/mL
same,MIC,"S. pneumoniae; WCH211 (serotype 11), 5% FBS",4 µg/mL
same,MIC,"S. pneumoniae; WCH211 (serotype 11), 10% FBS",4 µg/mL
same,MIC,"S. pneumoniae; WU2 (serotype 3), 5% FBS",8 µg/mL
same,MIC,"S. pneumoniae; WU2 (serotype 3), 10% FBS",8 µg/mL
same,IC50,[1],> 10 µg/mL
same,IC50,MDBK,17.3 ± 0.2 µg/mL
same,chromatographic logD,[2],4.5
